Activity calls are given as the source filed them. No cut-off for these calls is given here.
How the values were obtained:
[1] = tested on: A549; assay: Induction of apoptosis in human A549 cells assessed as early apoptotic cells at 10 uM measured after 24 hrs by AnnexinV-FITC/PI staining based flow cytometry (reference value: 1.26%); type: functional
[2] = AUC(0 to infinity) in Sprague-Dawley rat at 1 mg/kg, iv by LC-MS/MS analysis; type: ADME, organism-based; details: in vivo
[3] = tested on: A549; assay: Induction of cell cycle arrest in human A549 cells assessed as accumulation of cells at S phase at 5 uM incubated for 24 hrs by propidium iodide staining based flow cytometry (reference value: 38.18%); type: functional
[4] = Half life in Sprague-Dawley rat at 1 mg/kg, iv by LC-MS/MS analysis; type: ADME, organism-based; details: in vivo
[5] = tested on: A549; assay: Induction of morphological changes in human A549 cells assessed as abnormal cell morphology at 1.1 uM measured after 12 hrs by acridine orange staining based fluorescence microscopy; type: functional
[6] = tested on: A549; assay: Induction of apoptosis in human A549 cells assessed as late apoptotic cells at […] measured after 24 hrs by AnnexinV-FITC/PI staining based flow cytometry (reference value: 1.47%); type: functional; details: dose 2.5 µM
[7] = Oral bioavailability in Sprague-Dawley rat at 10 mg/kg by LC-MS/MS analysis; type: ADME, organism-based; details: in vivo
[8] = biological target: T1, Receptor-type tyrosine-protein kinase FLT3 (Homo sapiens, UniProt P36888); assay: Inhibition of Flt3 (unknown origin)
T1 sequence (P36888 whole entry): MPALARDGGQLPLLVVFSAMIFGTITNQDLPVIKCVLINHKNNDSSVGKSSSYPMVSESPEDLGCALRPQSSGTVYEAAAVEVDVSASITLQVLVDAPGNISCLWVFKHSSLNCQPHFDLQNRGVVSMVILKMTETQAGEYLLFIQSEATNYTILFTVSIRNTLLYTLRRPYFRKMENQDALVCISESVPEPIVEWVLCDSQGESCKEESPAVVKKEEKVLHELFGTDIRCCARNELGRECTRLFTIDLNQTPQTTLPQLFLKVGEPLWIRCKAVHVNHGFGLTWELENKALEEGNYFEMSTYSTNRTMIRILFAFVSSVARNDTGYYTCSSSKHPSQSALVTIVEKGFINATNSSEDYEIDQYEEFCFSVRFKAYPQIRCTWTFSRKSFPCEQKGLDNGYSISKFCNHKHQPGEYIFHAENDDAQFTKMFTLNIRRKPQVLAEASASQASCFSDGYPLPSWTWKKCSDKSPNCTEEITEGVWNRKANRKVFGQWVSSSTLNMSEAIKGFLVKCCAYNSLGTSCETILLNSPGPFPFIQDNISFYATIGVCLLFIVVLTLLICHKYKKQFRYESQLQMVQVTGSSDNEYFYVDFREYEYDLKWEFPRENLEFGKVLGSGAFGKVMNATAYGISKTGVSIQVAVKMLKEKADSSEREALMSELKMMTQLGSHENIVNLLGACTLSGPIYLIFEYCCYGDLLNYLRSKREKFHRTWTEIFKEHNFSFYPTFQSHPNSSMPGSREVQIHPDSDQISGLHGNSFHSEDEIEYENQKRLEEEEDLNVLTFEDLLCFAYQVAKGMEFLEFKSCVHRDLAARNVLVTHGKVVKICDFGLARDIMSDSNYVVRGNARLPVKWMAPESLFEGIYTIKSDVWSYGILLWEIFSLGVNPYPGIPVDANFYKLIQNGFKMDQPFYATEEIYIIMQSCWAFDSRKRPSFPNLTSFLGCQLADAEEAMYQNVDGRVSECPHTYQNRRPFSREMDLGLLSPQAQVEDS

[9] = tested on: A549; assay: Induction of cell cycle arrest in human A549 cells assessed as accumulation of cells at S phase at […] incubated for 24 hrs by propidium iodide staining based flow cytometry (reference value: 38.18%); type: functional; details: dose 2.5 µM
[10] = AUC(0 to t) in Sprague-Dawley rat at 10 mg/kg, po by LC-MS/MS analysis; type: ADME, organism-based; details: in vivo
[11] = AUC(0 to infinity) in Sprague-Dawley rat at 10 mg/kg, po by LC-MS/MS analysis; type: ADME, organism-based; details: in vivo
[12] = tested on: A549; assay: Induction of morphological changes in human A549 cells assessed as nucleus division and dispersion at 1.1 uM measured after 12 hrs by acridine orange staining based fluorescence microscopy; type: functional, cell-based
[13] = tested on: A549; assay: Induction of apoptosis in human A549 cells assessed as viable cells at […] measured after 24 hrs by AnnexinV-FITC/PI staining based flow cytometry (reference value: 93.25%); type: functional; details: dose 2.5 µM, read-out: Activity
[14] = Cmax in Sprague-Dawley rat at 1 mg/kg, iv by LC-MS/MS analysis; type: ADME, organism-based; details: in vivo
[15] = tested on: MCF7; assay: cells; details: Homo sapiens, MCF7, 72 h
[16] = tested on: A549; assay: Induction of cell cycle arrest in human A549 cells assessed as accumulation of cells at G2 phase at 5 uM incubated for 24 hrs by propidium iodide staining based flow cytometry (reference value: 7.36%); type: functional
[17] = tested on: A549; assay: Induction of apoptosis in human A549 cells assessed as early apoptotic cells at 5 uM measured after 24 hrs by AnnexinV-FITC/PI staining based flow cytometry (reference value: 1.26%); type: functional
[18] = AUC(0 to t) in Sprague-Dawley rat at 1 mg/kg, iv by LC-MS/MS analysis; type: ADME, organism-based; details: in vivo
[19] = tested on: A549; assay: Induction of cell cycle arrest in human A549 cells assessed as accumulation of cells at G2 phase at 10 uM incubated for 24 hrs by propidium iodide staining based flow cytometry (reference value: 7.36%); type: functional
[20] = tested on: A549; assay: Induction of cell cycle arrest in human A549 cells assessed as accumulation of cells at G2 phase at […] incubated for 24 hrs by propidium iodide staining based flow cytometry (reference value: 7.36%); type: functional; details: dose 2.5 µM
[21] = biological target: Mast/stem cell growth factor receptor Kit (Homo sapiens, UniProt P10721); assay: Inhibition of c-Kit (unknown origin)
Chain of Mast/stem cell growth factor receptor Kit (P10721 whole entry): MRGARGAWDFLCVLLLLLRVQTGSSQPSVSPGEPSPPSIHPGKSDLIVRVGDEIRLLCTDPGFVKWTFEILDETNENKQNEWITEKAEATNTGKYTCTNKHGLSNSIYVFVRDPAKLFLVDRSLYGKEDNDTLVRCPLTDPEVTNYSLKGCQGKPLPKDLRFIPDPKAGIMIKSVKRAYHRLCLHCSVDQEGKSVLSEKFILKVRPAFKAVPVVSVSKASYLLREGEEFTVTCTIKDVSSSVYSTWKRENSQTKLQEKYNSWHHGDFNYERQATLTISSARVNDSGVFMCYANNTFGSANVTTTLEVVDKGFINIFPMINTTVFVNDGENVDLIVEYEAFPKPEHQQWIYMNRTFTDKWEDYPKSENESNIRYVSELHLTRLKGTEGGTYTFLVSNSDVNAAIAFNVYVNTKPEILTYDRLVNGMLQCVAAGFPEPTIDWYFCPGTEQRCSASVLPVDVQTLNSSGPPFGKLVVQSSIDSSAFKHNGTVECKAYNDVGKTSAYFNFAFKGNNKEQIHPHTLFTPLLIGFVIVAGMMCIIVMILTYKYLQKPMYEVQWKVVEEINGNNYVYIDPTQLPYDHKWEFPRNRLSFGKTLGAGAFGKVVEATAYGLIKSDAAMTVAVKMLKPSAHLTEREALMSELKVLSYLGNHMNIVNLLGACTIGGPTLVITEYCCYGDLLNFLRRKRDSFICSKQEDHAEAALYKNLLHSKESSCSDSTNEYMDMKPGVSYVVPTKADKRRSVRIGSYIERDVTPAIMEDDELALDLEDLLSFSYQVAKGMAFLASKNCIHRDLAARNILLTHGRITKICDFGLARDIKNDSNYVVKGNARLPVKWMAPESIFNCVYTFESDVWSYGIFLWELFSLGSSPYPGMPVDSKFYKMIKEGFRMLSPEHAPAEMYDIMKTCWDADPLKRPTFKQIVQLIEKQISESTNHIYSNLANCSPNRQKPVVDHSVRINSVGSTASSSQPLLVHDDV

[22] = tested on: A549; assay: Induction of apoptosis in human A549 cells assessed as necrotic cells at 5 uM measured after 24 hrs by AnnexinV-FITC/PI staining based flow cytometry (reference value: 4.01%); type: functional
[23] = tested on: A549; assay: Induction of apoptosis in human A549 cells assessed as necrotic cells at […] measured after 24 hrs by AnnexinV-FITC/PI staining based flow cytometry (reference value: 4.01%); type: functional; details: dose 2.5 µM
[24] = biological target: Vascular endothelial growth factor receptor 2 (Homo sapiens, UniProt P35968); assay: Inhibition of VEGFR2 (unknown origin)
Chain of Vascular endothelial growth factor receptor 2 (P35968 whole entry): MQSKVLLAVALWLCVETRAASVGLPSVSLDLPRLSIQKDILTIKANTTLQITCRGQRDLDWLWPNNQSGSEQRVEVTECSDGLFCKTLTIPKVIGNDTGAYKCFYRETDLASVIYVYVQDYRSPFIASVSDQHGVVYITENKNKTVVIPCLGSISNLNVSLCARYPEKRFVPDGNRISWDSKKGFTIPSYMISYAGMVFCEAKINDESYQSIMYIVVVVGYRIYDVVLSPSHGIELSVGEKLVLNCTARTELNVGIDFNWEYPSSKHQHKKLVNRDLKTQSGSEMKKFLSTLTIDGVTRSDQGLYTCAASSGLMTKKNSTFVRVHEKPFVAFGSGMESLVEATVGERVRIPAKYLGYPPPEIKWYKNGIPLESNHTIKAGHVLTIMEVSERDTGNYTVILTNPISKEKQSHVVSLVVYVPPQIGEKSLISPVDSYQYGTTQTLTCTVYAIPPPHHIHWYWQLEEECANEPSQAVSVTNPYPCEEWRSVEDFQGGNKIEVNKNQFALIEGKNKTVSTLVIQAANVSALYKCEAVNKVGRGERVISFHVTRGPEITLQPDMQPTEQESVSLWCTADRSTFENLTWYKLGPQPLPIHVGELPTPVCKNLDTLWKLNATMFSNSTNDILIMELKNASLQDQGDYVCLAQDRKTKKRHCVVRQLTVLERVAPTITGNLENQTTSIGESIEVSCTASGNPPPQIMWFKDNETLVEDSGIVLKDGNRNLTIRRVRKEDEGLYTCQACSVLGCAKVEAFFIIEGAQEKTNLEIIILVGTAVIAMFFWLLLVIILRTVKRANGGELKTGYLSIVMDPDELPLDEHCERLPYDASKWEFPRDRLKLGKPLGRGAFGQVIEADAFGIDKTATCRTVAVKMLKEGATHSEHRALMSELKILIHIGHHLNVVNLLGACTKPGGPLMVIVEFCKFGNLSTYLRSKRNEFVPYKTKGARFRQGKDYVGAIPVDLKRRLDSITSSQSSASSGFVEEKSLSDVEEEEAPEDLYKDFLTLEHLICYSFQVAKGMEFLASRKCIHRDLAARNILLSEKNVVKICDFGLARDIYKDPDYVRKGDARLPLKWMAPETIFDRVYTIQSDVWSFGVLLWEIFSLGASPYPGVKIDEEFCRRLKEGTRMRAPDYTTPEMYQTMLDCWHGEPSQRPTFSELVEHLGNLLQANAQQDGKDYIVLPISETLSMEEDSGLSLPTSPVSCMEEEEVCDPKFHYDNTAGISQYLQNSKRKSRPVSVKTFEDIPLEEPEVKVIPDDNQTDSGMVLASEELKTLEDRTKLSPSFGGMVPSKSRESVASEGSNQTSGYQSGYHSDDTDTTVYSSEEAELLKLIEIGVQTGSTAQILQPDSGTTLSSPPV

[25] = tested on: A549; assay: Induction of apoptosis in human A549 cells assessed as early apoptotic cells at […] measured after 24 hrs by AnnexinV-FITC/PI staining based flow cytometry (reference value: 1.26%); type: functional; details: dose 2.5 µM
[26] = Tmax in Sprague-Dawley rat at 10 mg/kg, po by LC-MS/MS analysis; type: ADME, organism-based; details: in vivo
[27] = tested on: A549; assay: Induction of apoptosis in human A549 cells assessed as viable cells at 10 uM measured after 24 hrs by AnnexinV-FITC/PI staining based flow cytometry (reference value: 93.25%); type: functional; details: read-out: Activity
[28] = tested on: A549; assay: cells; details: Homo sapiens, A549, 72 h

AUC(0-inf) [2]: 2870 ng·h/mL
half-life [4]: 2.5 h
bioavailability [7]: 13.2%
IC50 [8]: > 100000 nM
AUC(0-t) [10]: 3320 ng·h/mL
AUC(0-inf) [11]: 3400 ng·h/mL
Cmax [14]: 1630 ng/mL
IC50 [15]: 2350 nM
AUC(0-t) [18]: 2860 ng·h/mL
IC50 [21]: > 100000 nM
IC50 [24]: > 100000 nM
Tmax [26]: 2.7 h
IC50 [28]: 260 nM
Structure (SMILES): O=C(NCCCN1CCOCC1)c1cc(Oc2ccc(NC(=O)c3cn(-c4ccc(F)c(Cl)c4)c4ncccc4c3=O)cc2F)ccn1
Activity [1]: 5.57%
Activity [3]: 30.85%
Activity [5]: Active
Activity [6]: 2.02%
Activity [9]: 35.16%
Activity [12]: Active
viability at […] [13]: 93.1%
Activity [16]: 11.77%
Activity [17]: 3.02%
Activity [19]: 12.65%
Activity [20]: 8.89%
Activity [22]: 7.49%
Activity [23]: 3.34%
Activity [25]: 1.57%
viability at 10 µM [27]: 74.3%

— ChEMBL document CHEMBL5620360, “Design, synthesis and biological evaluation of 4-(4-aminophenoxy)picolinamide derivatives as potential antitumor agents” (Eur J Med Chem, 2023)
